Here are results for four molecules from paper PMC9026428, “New Peptide Based Fluconazole Conjugates with Expanded Molecular Targets” (Pharmaceutics, 2022).

In data set [1] the test system is Candida albicans 247. Description: microbe, parasite or virus in culture. As to conditions: Candida albicans, 247, 24 h. The method, then:
(§1) The assessment of antifungal potential of synthesized agents was carried out using four reference strains (C. albicans ATCC 10231, C. albicans SC5314, C. glabrata DSM […] and C. krusei DSM […]) and six clinical isolates of fluconazole-resistant C. albicans that were provided by the Hospital of Medical University of Gdansk, Poland. Moreover, four C. albicans isolates, assigned as B3, B4, Gu4 and Gu5, were used for investigation whether the synthesized fluconazole derivatives were effectively removed from the yeast cells by the drug efflux transporters, as in the case of fluconazole. These strains were kindly provided by Prof. Joachim Morschhäuser from University of Würzburg (Würzburg, Germany). Strains Gu4 and B3 were fluconazole-sensitive isolates obtained from early infection episodes, while Gu5 and B4 were the corresponding fluconazole-resistant isolates obtained from later episodes in the same patients treated with fluconazole. The lack of susceptibility of the Gu5 strain to fluconazole was a consequence of overexpression of CDR1/2 genes encoding ABC transporters, whereas the resistance of B4 strain was caused by overexpression of the MDR1 gene encoding a membrane transport protein of the major facilitator superfamily (MFS). All of these Candida spp. strains were maintained on YPD agar plates (1% (w/v) yeast extract, 2% (w/v) peptone, 2% (w/v) glucose, 2% (w/v) agar) at 30 °C for 16–24 h. For all of the assays aimed at assessing the antifungal potential of the synthesized agents, the yeasts were cultivated at 37 °C in RPMI 1640 medium (with L-glutamine, without sodium bicarbonate, Sigma-Aldrich, Darmstadt, Germany)) buffered to a pH of 7.0 with 0.165 M morpholinepropanesulfonic acid (MOPS) buffer (Sigma-Aldrich). In this study, we used the human foreskin fibroblast cell line Hs27 (ATCC CRL 1634TM) and the human endothelial cell line HUVEC (C2519A), purchased from Lonza Group AG, (Basel, Switzerland). The Hs27 cells were maintained in cell media consisting of Dulbecco’s modified Eagles medium (DMEM), (Corning, Arizona, USA) with 10% fetal bovine serum (FBS), (Corning, Port Elizabeth, South Africa), 1% penicillin/streptomycin (Sigma-Aldrich Inc., Darmstadt, Germany), and 1% L-glutamine (Corning, Arizona, USA). The human endothelial cell line was maintained in cell media consisting of Endothelial Cell Growth Medium-2 Single Quots Kit (Lonza, USA). Both cell lines were cultured in an incubator at 37 °C and 5% CO2.
(§2) Antifungal activity of the tested compounds against yeast cells was determined in 96-well plates as described in the CLSI document M27-A3 [39], with minor modifications (CLSI, 2008). […] The plates were incubated for 24 h at 37 °C. Each test was performed in triplicate. The final concentration of DMSO was ensured to be around 1% in all experiments.
(§3) For determination of minimum fungicidal concentrations (MFC), small aliquots of suspensions (around 10 μL) from each well were transferred using the pipette to YPD agar plates without inhibitors and incubated for 24 h at 37 °C.

The subject of data set [2] is Candida albicans B3. Description: microbe, parasite or virus in culture. The note with it: Candida albicans, B3, 24 h. The method, then: as §1, §2, §3
In data set [3] the test system is Candida albicans 138. Description: microbe, parasite or virus in culture. As to conditions: Candida albicans, 138, 24 h. How it is done: as §1, §2, §3
Data set [4] relates to Candida albicans 574. Description: microbe, parasite or virus in culture. As to conditions: Candida albicans, 574, 24 h. The method, then: as §1, §2, §3
For data set [5], the system named is Candida albicans Gu5. As to the kind of experiment: microbe, parasite or virus in culture. The note with it: Candida albicans, GU5, 24 h. How it is done: as §1, §2, §3
Data set [6] deals with Candida albicans 190. Description: microbe, parasite or virus in culture. The note with it: Candida albicans, 190, 24 h. How it is done: as §1, §2, §3
In data set [7] the test system is Candida albicans SC 5314. As to the kind of experiment: microbe, parasite or virus in culture. The note with it: Candida albicans, SC5314, 24 h. The method, then: as §1, §2, §3
For data set [8], the system named is Candida albicans Gu4. Description: microbe, parasite or virus in culture. The note with it: Candida albicans, GU4, 24 h. How it is done:
as §1, §2, §3

The test system of data set [9] is Candida albicans 48. As to the kind of experiment: microbe, parasite or virus in culture. As to conditions: Candida albicans, 48, 24 h. The method, then: as §1, §2, §3
The test system of data set [10] is Candida albicans ATCC 10231. Description: microbe, parasite or virus in culture. As to conditions: Candida albicans, ATCC10231, 24 h. How it is done: as §1, §2, §3
Data set [11] has as its system Candida albicans B4. Description: microbe, parasite or virus in culture. As to conditions: Candida albicans, B4, 24 h. How it is done:
as §1, §2, §3

Data set [12] relates to Candida krusei DSM 11226. As to the kind of experiment: microbe, parasite or virus in culture. As to conditions: Pichia kudriavzevii, DSM11226, 24 h. The method, then:
as §1, §2, §3

Data set [13] relates to Candida glabrata DSM 6128. As to the kind of experiment: microbe, parasite or virus in culture. As to conditions: Nakaseomyces glabratus, DSM6128, 24 h. How it is done:
as §1, §2, §3

Data set [14] has as its system Candida albicans 604. As to the kind of experiment: microbe, parasite or virus in culture. As to conditions: Candida albicans, 604, 24 h. How it is done:
as §1, §2, §3

Data set [15] relates to Candida spp. strains tested. Description: Antifungal activity against the whole panel of strains tested. The format is cell-based. As to conditions: Candida; all strains of Table 2. How it is done: Antifungal activity of the tested compounds against yeast cells was determined in 96-well plates as described in the CLSI document M27-A3 [39], with minor modifications (CLSI, 2008). Suspensions of the microorganisms were prepared by taking one loop of pure culture into sterile water and adjusting optical density to 0.1 at 660 nm wavelength and further 50-fold dilution in RPMI 1640 medium, resulting in cell concentration of approximately 2 × 10^4 CFU/mL [21]. Then, 100 μL of cells were added to the wells of a 96-well microtiter plate that contained 16–500 μM tested compounds and 16–500 μM of FLC or 0.2–62 μM AmB. The plates were incubated for 24 h at 37 °C. Each test was performed in triplicate. […] The MIC90 was defined as the lowest concentration of drug showing no visible growth; MIC50 was defined as the concentration that yielded at least 50% growth inhibition when compared with the growth control well.

Data set [16] has as its system C. glabrata DSM 11226. As to conditions: C. glabrata DSM 11226, RPMI-1640, 200 – 0.4 μg/mL range. The method, then: (§4) The selective activities of the FLC-conjugates were calculated according to the following formula
(§5) (1 picture or pasted object on this page, not shown here)

For data set [17], the system named is C. krusei DSM 6128. The note with it: C. krusei DSM 6128, RPMI-1640, 200 – 0.4 μg/mL range. The method, then:
as §4, §5

For data set [18], the system named is C. albicans ATCC 10231. As to conditions: C. albicans ATCC 10231, RPMI-1640, 200 – 0.4 μg/mL range. The method, then:
as §4, §5

For data set [19], the system named is C. tropicalis (clinical). As to conditions: RPMI-1640, 200 – 0.4 μg/mL range. The method, then:
as §4, §5

The conditions of data set [20]: cited from earlier work. How it is done:
Fluconazole is water-soluble, safe for patients even at a high daily dose ([…]), can be applied either intravenously or orally, and has a beneficial pharmacokinetic profile and broad spectrum of activity.

Read-outs that look alike come from different tables or passages of the source. No end group written: not given here.

One may read the MFC as the smallest concentration meeting the test's criterion for killing the fungus. Low values mean more potent killing, high ones less potent killing. As a reminder, the MIC is the lowest concentration that inhibits growth of the organism. A high value points to weaker potency. Turning to `C[C@@H]1[C@H](O)[C@@H](C)/C=C/C=C/C=C/C=C/C=C/C=C/C=C/[C@H](O[C@@H]2O[C@H](C)[C@@H](O)[C@H](N)[C@@H]2O)C[C@@H]2O[C@](O)(C[C@@H](O)C[C@@H](O)[C@H](O)CC[C@@H](O)C[C@@H](O)CC(=O)O[C@H]1C)C[C@H](O)[C@H]2C(=O)O` [Amphotericin B (AmpB), Amphotericin B, reference compound], the MFC in [1], in data set [2], in data set [3], in [4], in data set [5] and in data set [6] was below 0.1 µM each time. Besides, the MFC in data set [7], in data set [8], in data set [9], in data set [10], in [11] and in data set [12] was below 0.1 µM throughout. Moreover, the MFC in data set [13] and in data set [14] was below 0.1 µM in each case. The MIC50 in data set [1] (pH 7), in data set [2] (pH 7), in data set [3] (pH 7), in data set [4] (pH 7), in data set [5] (pH 7) and in data set [6] (pH 7) was below 0.1 µM in each case. For the same molecule, the MIC50 in [7] (pH 7), in data set [8] (pH 7), in data set [9] (pH 7), in data set [10] (pH 7), in data set [11] (pH 7) and in data set [12] (pH 7) was below 0.1 µM each time. For the same molecule, the MIC50 in [13] (pH 7) and in data set [14] (pH 7) was below 0.1 µM each time. For the same molecule, the MIC90 in [1] (pH 7), in data set [2] (pH 7), in data set [3] (pH 7), in data set [4] (pH 7), in data set [5] (pH 7) and in [6] (pH 7) was below 0.1 µM throughout. Moreover, the MIC90 in [7] (pH 7), in data set [8] (pH 7), in [9] (pH 7), in data set [10] (pH 7), in data set [11] (pH 7) and in data set [12] (pH 7) was below 0.1 µM each time. The MIC90 in data set [13] (pH 7) and in data set [14] (pH 7) was below 0.1 µM throughout. The MIC in [15] is below 0.1 µM.

For the molecule CFQWKRAMRKVR-NH2 [HLopt2-NH2], the “MIC50” value is above 250 µg/mL in data set [16], 250 µg/mL in data set [17], above 250 µg/mL in data set [18] and above 250 µg/mL in [19]. For the same molecule, the “MIC90” value in data set [16] was above 250 µg/mL; in [17] it was 250 µg/mL; in data set [19], above 250 µg/mL.

In the case of `CCC(C)n1ncn(-c2ccc(N3CCN(c4ccc(OCC5COC(Cn6cncn6)(c6ccc(Cl)cc6Cl)O5)cc4)CC3)cc2)c1=O` (stereo not shown) [itraconazole], the “incidence rate of azole-induced liver injury” value in data set [20] (in vivo) is listed as 2–4%.

For `CC(=O)N1CCN(c2ccc(OCC3COC(Cn4ccnc4)(c4ccc(Cl)cc4Cl)O3)cc2)CC1` (stereo not shown) [ketoconazole], the “incidence rate of azole-induced liver injury” value in [20] is 2–10%.
